Literature values, collected in patent publication US20240189475A1 (PUKYONG NATIONAL UNIVERSITY INDUSTRY-UNIVERSITY COOPERATION …, priority 2022, published 2024).

Details: background statement

CC(=O)c1c(O)c(C)c(O)c2c1OC1=CC(=O)C(C(C)=O)C(=O)C12C (stereo not shown) [UA, usnic acid]
solubility in water: low solubility in water
